Data: the NIST ThermoML archive (doi:10.1016/j.jct.2006.03.010)
± gives the expanded uncertainty stated by the source.

Assay: xn = mol fraction of the nth substance listed
Details: 298.15 K, 101 kPa, Liquid; for speed of sound: Linear variable-path acoustic interferometer

ClC(Cl)Cl [trichloromethane] + CCO
Details	mass density [kg/m3]	speed of sound [m/s]	viscosity [mPa·s]
x1 = 0.0522	834.86 ± 0.47	1129 ± 3	1.085 ± 0.014
x1 = 0.1007	879.76 ± 0.5	1114 ± 3	1.07 ± 0.014
x1 = 0.1468	920.98 ± 0.53	1101 ± 3	1.043 ± 0.014
x1 = 0.2014	968.01 ± 0.56	1085 ± 3	1.003 ± 0.014
x1 = 0.2505	1008.24 ± 0.6	1071 ± 3	0.956 ± 0.013
x1 = 0.3005	1047.8 ± 0.63	1057 ± 3	0.901 ± 0.013
x1 = 0.3491	1084.58 ± 0.66	1045 ± 3	0.86 ± 0.012
x1 = 0.3999	1121.8 ± 0.7	1033 ± 3	0.809 ± 0.012
x1 = 0.4505	1157.08 ± 0.74	1021 ± 3	0.767 ± 0.011
x1 = 0.5045	1193.09 ± 0.78	1011 ± 2	0.73 ± 0.011
x1 = 0.5509	1223.51 ± 0.82	1003 ± 2	0.694 ± 0.011
x1 = 0.6007	1254.55 ± 0.86	996 ± 2	0.668 ± 0.01
x1 = 0.6492	1284.3 ± 0.89	990 ± 2	0.644 ± 0.01
x1 = 0.7008	1314.71 ± 0.94	985 ± 2	0.629 ± 0.01
x1 = 0.7496	1342.79 ± 0.98	982 ± 2	0.615 ± 0.01
x1 = 0.8059	1374.26 ± 1	981 ± 2	0.601 ± 0.01
x1 = 0.8544	1400.99 ± 1.1	980 ± 2	0.596 ± 0.01
x1 = 0.8994	1425.35 ± 1.1	981 ± 3	0.588 ± 0.01
x1 = 0.9498	1452.14 ± 1.2	983 ± 3	0.576 ± 0.01
x1 = 1	1478.82 ± 1.2	985 ± 3	0.556 ± 0.01
